# In patent US7253212B2, “Retinol derivative and cosmetic composition comprising the same” (Coreana Cosmetics Co., Ltd., priority 2002, dated 2007):
# How the values were obtained:
# Human normal fibroblasts = experiment: Effect on collagen biosynthesis (procollagen type C-peptide kit); format: cell-based; conditions: 48 hours treatment
# Description: Human normal fibroblasts (ATCC) were inoculated (2×10^4 cells/well) on 96-well microplate containing DMEM supplemented with FBS and incubated for 24 hours at 37° C. After incubation, the medium in microplate was replaced with fresh DMEM without serum comprising the derivative of this invention, retinol or ascorbic acid and then additional incubation for 48 hours was carried out. Control was not treated with any of the compounds described above. Following incubation, each well was rinsed, fresh DMEM without serum was supplied and then additional incubation for 24 hours was performed. Then, procollagen type C-peptide obtained from the supernatant of each well was measured using a kit purchased from Takara Co. (Japan) and the measured values were converted to ng/2×10^4 cells, which indicate the amount of collagen newly generated.
# [1] = Scavenging effect on free radical (DPPH); conditions: 30 min, absorbance 520 nm
# Description: Evaluation of scavenging effect on free radical was performed using DPPH (1,1-diphenyl-2-picryl-hydrazyl, Sigma-Aldrich). 100 μl of each of the substances (the derivative of this invention, retinol and ascorbic acid) diluted to a suitable concentration and 100 μl of 400 μM DPPH solution were consequently added to a 96-well microplate and agitation was performed, followed by reaction for 30 min. at room temperature. Then, absorbance at 520 nm was measured using spectrophotometer. Control contains 100 μl of ethanol in place of the substance to be tested. The scavenging effect on free radical was calculated as following formula: scavenging effect on free radical (%)=100−{(absorbance of sample solution/absorbance of control)×100}
# tyrosinase = experiment: Inhibitory effect on tyrosinase activity; format: biochemical
# Description: A tyrosinase used herein was purchased from Sigma (U.S.A.). Tyrosine as substrate was used as a solution (0.1 mg/ml) dissolved in 0.05 M sodium phosphate buffer (pH 6.8).
# 0.5 ml of tyrosine solution was placed in a test tube and 0.5 ml of sample solution to be evaluated was added. The test tube was allowed to stand in incubator for 10 min. at 37° C. and then 0.5 ml of tyrosinase (200 U/ml) was added. The reaction was carried out for 10 min at 37° C. As a control group, 0.5 ml of buffer solution was added instead of the sample to be evaluated. The reaction was quenched by placing the test tube on ice and the absorbance of the resultant was measured at 475 nm with spectrophotometer. The inhibitory effect on tyrosinase activity was determined by the equation: inhibition rate on tyrosinase activity (%)=100−{(absorbance of sample/absorbance of control)×100}
Inhibition rate on tyrosinase activity (%) (tyrosinase; sample conc. 10 μg/ml),Inhibition rate on tyrosinase activity (%) (tyrosinase; sample conc. 20 μg/ml),Inhibition rate on tyrosinase activity (%) (tyrosinase; sample conc. 50 μg/ml),Inhibition rate on tyrosinase activity (%) (tyrosinase; sample conc. 100 μg/ml),Inhibition rate on tyrosinase activity (%) (tyrosinase; sample conc. 200 μg/ml),Inhibition rate on tyrosinase activity (%) (tyrosinase; sample conc. 500 μg/ml),SMILES,Amount of Collagen Newly Generated (Human normal fibroblasts; addition amount 50 μg) [ng/2 × 10^4 cells],Amount of Collagen Newly Generated (Human normal fibroblasts; addition amount 100 μg) [ng/2 × 10^4 cells],Amount of Collagen Newly Generated (Human normal fibroblasts; addition amount 200 μg) [ng/2 × 10^4 cells],Scavenging effect on free radical (%) ([1]; concentration 0.5 mM),Scavenging effect on free radical (%) ([1]; concentration 1 mM)
0.6,1.1,3.2,3.9,5.6,9.2,CC1=C(/C=C/C(C)=C/C=C/C(C)=C/CO)C(C)(C)CCC1 [Retinol],174,233,286,0.4,1.6
5.1,9.8,13.2,22.5,34.8,62.4,O=C1O[C@H]([C@@H](O)CO)C(O)=C1O [L-ascorbic acid],198,267,314,91.2,91.9
8.1,10.7,13.8,32.9,47.1,78.8,CC1=C(/C=C/C(C)=C/C=C/C(C)=C/COC(=O)COC2=C(O)C(=O)OC2C(O)CO)C(C)(C)CCC1 (stereo not drawn) [Derivative of this invention],215,290,349,95.7,96.4
